These results are taken from publication PMC4978154, “Phase I metabolites of mephedrone display biological activity as substrates at monoamine transporters” (British Journal of Pharmacology, 2016).

A word on the EC50: it is the concentration needed to bring the measured effect to its halfway point. By IC50 is commonly meant the concentration needed to halve the response being measured.

For assay [1], the target named is T1, NET (Rattus norvegicus, UniProt Q63380).
T1 construct: a native tissue preparation that contains plasma membrane transporters in situ; from tissue; host or cells: rat whole brain minus striatum and cerebellum, synaptosomes
As to the kind of experiment: Transporter release assay in rat brain synaptosomes, NET. It is filed as biochemical. Particulars: [3H]-MPP+, mean (95% confidence interval). Here is the method:
(§1) The ability of mephedrone and its metabolites to evoke release via DAT, NET and SERT was determined in rat brain synaptosomes as previously described (Baumann et al., 2012). Rats were killed with CO2, decapitated, and brains were rapidly removed and dissected on ice. Synaptosomes were prepared from striatum for DAT assays, whereas synaptosomes were prepared from whole brain minus striatum and cerebellum for the NET and SERT assays. [^3H]‐MPP^+ (9 nM) was used as the radiolabelled substrate for DAT and NET, whereas [^3H]‐5‐HT (5 nM) was used as the radiolabelled substrate for SERT. All buffers used in the release assays contained 1 μM reserpine to block vesicular uptake of substrates. The selectivity of assays was optimized for a single transporter by including unlabelled compounds [nomifensine and 1‐(2‐diphenylmethoxyethyl)‐4‐(3‐phenylpropyl)piperazine dihydrochloride (GBR12935) for SERT; GBR12935 and citalopram for NET; citalopram and desipramine for DAT] to prevent the uptake of [^3H]‐MPP^+ or [^3H]‐5‐HT by competing transporters. Synaptosomes were preloaded with radiolabelled substrate in Krebs‐phosphate buffer, which consisted of 126 mM NaCl, 2.4 mM KCl, 0.5 mM KH2PO4, 1.1 mM CaCl2, 0.83 mM MgCl2, 0.5 mM Na2SO4, 11.1 mM glucose, 13.7 mM Na2HPO4, 1 mg·mL^−1 ascorbic acid and 50 μM pargyline (pH = 7.4) for 1 h (steady state). […] Assays were terminated by vacuum filtration, and retained radioactivity was quantified by liquid scintillation counting.
(§2) Calculations were performed using Microsoft Excel® 2010 (Microsoft Corporation, Redmond, WA, USA) and GRAPHPAD PRISM 5.0. […] IC50 values for uptake inhibition and EC50 values for release were determined by nonlinear regression fits. Release data expressed as AUC were analysed by one‐way ANOVA followed by Bonferroni's multiple comparison test. Microdialysis and locomotor data were analysed by two‐way ANOVA (drug treatment × time) followed by Bonferroni's test. The effect of monensin treatment on basal efflux of tritiated substrate was analysed with the Mann–Whitney test. […]

In assay [2] the target is T2, hSERT (Homo sapiens, UniProt P31645).
T2 construct: yellow fluorescent protein (YFP); expressed in transfected cells
Briefly: Transporter uptake inhibition in HEK293 cells expressing hSERT. It is filed as cell-based. Particulars: [3H]-5-HT uptake; for IC50: mean (95% confidence interval). Here is the method: The generation of HEK293 cells stably expressing the human isoforms of DAT (hDAT) and NET (hNET) was carried out as described previously (Scholze et al., 2002). For SERT, the human isoform (hSERT) was cloned in frame with yellow fluorescent protein (Schmid et al., 2001). The generation of a stable cell line was performed as described by Hilber and colleagues (Hilber et al., 2005). HEK293 cells were maintained in humidified atmosphere (5% CO2, 37°C) in DMEM, supplemented with 10% heat‐inactivated FBS and penicillin (100 u 100 mL^−1) and streptomycin (100 μg 100 mL^−1). Selection pressure was maintained by adding geneticin (50 μg·mL^−1) to the cell culture media.
Uptake experiments were conducted as described previously (Sitte et al., 2001) with minor modifications. In brief, HEK293 cells expressing hDAT, hNET or hSERT were seeded into poly‐D‐lysine (PDL) coated 96‐well plates at a density of 40 000 cells per well. The next day, DMEM was aspirated and replaced with Krebs HEPES buffer (KHB, 25 mM HEPES, 120 mM NaCl, 5 mM KCl, 1.2 mM CaCl2, and 1.2 mM MgSO4, 5 mM D‐glucose, pH adjusted to 7.3 with NaOH) (200 μL per well), and cells were pre‐incubated with various concentrations of mephedrone or its metabolites for 5 min (50 μL per well). Subsequently, 0.1 μM of [^3H]‐5‐HT or 0.02 μM of [^3H]‐MPP^+ were added, and uptake was terminated after 1 (hSERT) or 3 min (hDAT, hNET) by washing the cells with 200 μL of ice‐cold KHB. Cells were lysed with 1% SDS, and tritium uptake was determined by scintillation counting. Nonspecific uptake was determined in the presence of 10 μM paroxetine (hSERT) or 10 μM mazindol (hDAT and hNET).
(§3) Calculations were performed using Microsoft Excel® 2010 (Microsoft Corporation, Redmond, WA, USA) and GRAPHPAD PRISM 5.0. (GraphPad Software Inc., La Jolla, CA, USA). IC50 values for uptake inhibition and EC50 values for release were determined by nonlinear regression fits. Release data expressed as AUC were analysed by one‐way ANOVA followed by Bonferroni's multiple comparison test. Microdialysis and locomotor data were analysed by two‐way ANOVA (drug treatment × time) followed by Bonferroni's test. The effect of monensin treatment on basal efflux of tritiated substrate was analysed with the Mann–Whitney test. P values less than 0.05 (i.e. P < 0.05) were considered significant. The data and statistical analysis comply with the recommendations on experimental design and analysis in pharmacology (Curtis et al., 2015).

For assay [3], the target named is T3, SERT (Rattus norvegicus, UniProt P31652).
T3 construct: a native tissue preparation that contains plasma membrane transporters in situ; from tissue; host or cells: rat whole brain minus striatum and cerebellum, synaptosomes
Briefly: Transporter release assay in rat brain synaptosomes, SERT. It is filed as biochemical. The settings on record: [3H]-5-HT; for EC50: mean (95% confidence interval). Here is the method:
The ability of mephedrone and its metabolites to evoke release via DAT, NET and SERT was determined in rat brain synaptosomes as previously described (Baumann et al., 2012). Rats were killed with CO2, decapitated, and brains were rapidly removed and dissected on ice. Synaptosomes were prepared from striatum for DAT assays, whereas synaptosomes were prepared from whole brain minus striatum and cerebellum for the NET and SERT assays. [^3H]‐MPP^+ (9 nM) was used as the radiolabelled substrate for DAT and NET, whereas [^3H]‐5‐HT (5 nM) was used as the radiolabelled substrate for SERT. All buffers used in the release assays contained 1 μM reserpine to block vesicular uptake of substrates. The selectivity of assays was optimized for a single transporter by including unlabelled compounds [nomifensine and 1‐(2‐diphenylmethoxyethyl)‐4‐(3‐phenylpropyl)piperazine dihydrochloride (GBR12935) for SERT; GBR12935 and citalopram for NET; citalopram and desipramine for DAT] to prevent the uptake of [^3H]‐MPP^+ or [^3H]‐5‐HT by competing transporters. Synaptosomes were preloaded with radiolabelled substrate in Krebs‐phosphate buffer, which consisted of 126 mM NaCl, 2.4 mM KCl, 0.5 mM KH2PO4, 1.1 mM CaCl2, 0.83 mM MgCl2, 0.5 mM Na2SO4, 11.1 mM glucose, 13.7 mM Na2HPO4, 1 mg·mL^−1 ascorbic acid and 50 μM pargyline (pH = 7.4) for 1 h (steady state). Assays were initiated by adding 850 μL of preloaded synaptosomes to 150 μL of test drug. Dose–response curves were generated using eight different concentrations of mephedrone, nor‐mephedrone or 4‐OH‐mephedrone. Assays were terminated by vacuum filtration, and retained radioactivity was quantified by liquid scintillation counting.
as §3

For assay [4], the target named is T4, DAT (Rattus norvegicus, UniProt P23977).
T4 construct: a native tissue preparation that contains plasma membrane transporters in situ; from tissue; host or cells: rat striatum synaptosomes
Briefly: Transporter release assay in rat brain synaptosomes, DAT. The format is biochemical. Particulars: [3H]-MPP+, mean (95% confidence interval). Here is the method:
as §1, §2

The mark [5] stands for this setting: EC50 on transporter mediated efflux, NET.
[6] abbreviates: IC50 on uptake mediated by hSERT.
Where [7] appears, read: EC50 on transporter mediated efflux, SERT.
Where [8] appears, read: EC50 on transporter mediated efflux, DAT.

Values joined by “and” are separate entries in the source; they are usually repeats but may differ in a detail not shown here. Equal entries are not always repeated. Where two headings read alike, the source gives them in different places.

T2 sequence (P31645 whole entry): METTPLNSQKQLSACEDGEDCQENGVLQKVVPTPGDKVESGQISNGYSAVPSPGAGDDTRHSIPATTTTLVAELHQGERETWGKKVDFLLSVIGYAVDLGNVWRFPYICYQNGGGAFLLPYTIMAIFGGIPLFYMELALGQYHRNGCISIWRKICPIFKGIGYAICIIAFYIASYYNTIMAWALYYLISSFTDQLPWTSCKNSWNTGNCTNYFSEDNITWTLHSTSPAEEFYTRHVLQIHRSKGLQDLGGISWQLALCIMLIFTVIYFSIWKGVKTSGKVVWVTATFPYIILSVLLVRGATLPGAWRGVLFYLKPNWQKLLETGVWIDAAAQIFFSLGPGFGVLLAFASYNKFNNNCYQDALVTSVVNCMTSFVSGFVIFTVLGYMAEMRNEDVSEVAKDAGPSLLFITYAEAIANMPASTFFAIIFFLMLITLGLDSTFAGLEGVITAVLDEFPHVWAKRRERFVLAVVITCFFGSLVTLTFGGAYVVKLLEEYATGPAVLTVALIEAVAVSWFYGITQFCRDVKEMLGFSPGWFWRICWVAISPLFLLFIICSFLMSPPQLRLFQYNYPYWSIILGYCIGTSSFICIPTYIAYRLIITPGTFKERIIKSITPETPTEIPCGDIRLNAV
T1 sequence (Q63380 1-617): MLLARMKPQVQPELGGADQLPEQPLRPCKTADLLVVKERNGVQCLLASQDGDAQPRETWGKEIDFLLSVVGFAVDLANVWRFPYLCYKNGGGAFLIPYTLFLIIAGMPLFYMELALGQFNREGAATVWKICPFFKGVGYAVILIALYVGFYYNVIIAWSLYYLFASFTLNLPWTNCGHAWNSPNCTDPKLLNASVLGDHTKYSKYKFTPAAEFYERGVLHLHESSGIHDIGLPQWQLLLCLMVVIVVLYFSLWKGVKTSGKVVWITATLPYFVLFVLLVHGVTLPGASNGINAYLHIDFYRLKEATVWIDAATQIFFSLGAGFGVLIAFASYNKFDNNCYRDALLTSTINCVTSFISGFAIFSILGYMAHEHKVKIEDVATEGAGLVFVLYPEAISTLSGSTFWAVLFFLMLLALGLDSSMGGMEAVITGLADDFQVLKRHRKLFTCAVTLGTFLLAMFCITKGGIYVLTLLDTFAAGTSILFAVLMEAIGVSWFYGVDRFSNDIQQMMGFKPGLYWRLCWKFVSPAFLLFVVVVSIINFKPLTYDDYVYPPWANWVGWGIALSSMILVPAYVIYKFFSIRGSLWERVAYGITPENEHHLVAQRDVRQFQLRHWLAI
T4 sequence (P23977 whole entry): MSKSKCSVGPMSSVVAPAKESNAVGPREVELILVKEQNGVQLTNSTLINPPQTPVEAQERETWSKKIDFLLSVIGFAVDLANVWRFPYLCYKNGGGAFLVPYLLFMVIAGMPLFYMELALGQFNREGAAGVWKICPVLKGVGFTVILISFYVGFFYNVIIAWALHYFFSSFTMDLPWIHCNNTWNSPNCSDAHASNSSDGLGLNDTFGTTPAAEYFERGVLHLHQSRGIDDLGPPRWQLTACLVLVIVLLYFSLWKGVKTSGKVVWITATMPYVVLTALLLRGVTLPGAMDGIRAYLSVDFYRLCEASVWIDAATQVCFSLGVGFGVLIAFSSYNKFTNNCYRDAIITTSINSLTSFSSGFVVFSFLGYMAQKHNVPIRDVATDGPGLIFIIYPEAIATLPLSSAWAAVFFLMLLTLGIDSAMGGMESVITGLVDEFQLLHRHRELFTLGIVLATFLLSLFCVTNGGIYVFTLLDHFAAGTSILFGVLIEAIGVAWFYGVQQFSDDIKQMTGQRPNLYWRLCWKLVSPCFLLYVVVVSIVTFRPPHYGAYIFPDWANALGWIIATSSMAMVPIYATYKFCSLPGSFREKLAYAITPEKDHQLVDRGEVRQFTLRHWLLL
T3 sequence (P31652 whole entry): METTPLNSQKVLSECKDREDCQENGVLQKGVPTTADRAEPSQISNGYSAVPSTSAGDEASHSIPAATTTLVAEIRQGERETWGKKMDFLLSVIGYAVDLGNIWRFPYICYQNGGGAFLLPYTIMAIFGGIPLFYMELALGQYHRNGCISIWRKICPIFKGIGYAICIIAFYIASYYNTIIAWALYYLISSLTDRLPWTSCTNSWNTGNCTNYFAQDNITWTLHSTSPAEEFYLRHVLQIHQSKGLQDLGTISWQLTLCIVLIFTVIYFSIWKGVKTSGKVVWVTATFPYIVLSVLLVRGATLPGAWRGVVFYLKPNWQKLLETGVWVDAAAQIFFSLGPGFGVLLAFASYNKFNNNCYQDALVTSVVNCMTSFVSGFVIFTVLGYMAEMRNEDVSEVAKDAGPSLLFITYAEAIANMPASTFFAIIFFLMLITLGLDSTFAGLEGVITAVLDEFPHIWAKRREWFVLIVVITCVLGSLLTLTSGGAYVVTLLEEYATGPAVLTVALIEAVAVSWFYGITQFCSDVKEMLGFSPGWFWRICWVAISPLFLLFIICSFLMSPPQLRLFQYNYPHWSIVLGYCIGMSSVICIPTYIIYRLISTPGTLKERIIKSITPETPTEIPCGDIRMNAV

For `CNC(C)C(=O)c1ccc(C)cc1.Cl` (stereo not shown) [Mephedrone, 2‐Methylamino‐1‐(p‐tolyl)propan‐1‐one hydrochloride], the EC50 amounted to 90 nM in assay [1] (setting [5]), 210 nM in assay [3] (setting [7]) and 52 nM in assay [4] (setting [8]). In assay [2] (setting [6]), this compound registered an IC50 of 7830 nM. Further, the “efficacy of uptake inhibition at hSERT” value in assay [2] is recorded as “fully efficacious inhibitors of uptake”.
On to `Cc1ccc(C(=O)C(C)N)cc1.Cl` (stereo not shown) [Nor‐mephedrone, 2‐amino‐1‐(p‐tolyl)propan‐1‐one hydrochloride], for which the EC50 in assay [1] (setting [5]) is 100 nM; in assay [3] (setting [7]), 200 nM and 210 nM; in assay [4] (setting [8]) it was 220 nM. Moreover, inhibition in assay [2] (setting [6]) was half-maximal at 10600 nM (IC50). For the same compound, the “efficacy of uptake inhibition at hSERT” value in assay [2] was “fully efficacious inhibitors of uptake”.
As to `CNC(C)C(=O)c1ccc(CO)cc1.Cl` (stereo not shown) [4‐OH‐mephedrone, 1‐(4‐(hydroxymethyl)phenyl)‐2‐(methylamino)propan‐1‐one hydrochloride], the EC50 is 150 nM in assay [1] (read-out: EC50 on transporter mediated efflux, NET); 2000 nM and 2010 nM in assay [3] (read-out: EC50 on transporter mediated efflux, SERT); 190 nM in assay [4] (read-out: EC50 on transporter mediated efflux, DAT). For the same compound, the “efficacy of uptake inhibition at hSERT” value in assay [2] is listed as “fully efficacious inhibitors of uptake”. Moreover, the IC50 in assay [2] (read-out: IC50 on uptake mediated by hSERT) was 73500 nM. The “rightward shift of SERT release curve compared with mephedrone” value in assay [3] is reported as 10 fold.
